Measured values: PubChem BioAssay AID1963435 (Molecular Pharmacology Branch, DTP, NCI, 2024)
Values belong to the compound of their own block, whether it stands above or below them.

Tested on: PANC-1 complex spheroid growth, percent test/control
Assay: Anticancer human tumor PANC-1 cell line growth inhibition [Asc];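 note: spheroids exposed to agents for 7 days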;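 for viability, T/C: percent viability relative to DMSO vehicle wells taken as 100%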
Conditions: for IC50: curve of first compound; for viability, T/C: stronger effect = lower value
Method in brief: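 Concentration series start at each agent's clinical Cmax, or at 10 microM when none is established, and drop in half-log steps; agents are applied alone or together to complex spheroids built with HUVEC and hMSC.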

[1] = second compound 0.0316 µM, first compound 0.00316 µM
[2] = second compound 0.0316 µM, first compound 0.01 µM
[3] = second compound 0.0316 µM, first compound 0.0316 µM
[4] = second compound 0.0316 µM, first compound 0.1 µM
[5] = second compound 0.1 µM, first compound 0.00316 µM
[6] = second compound 0.1 µM, first compound 0.01 µM
[7] = second compound 0.1 µM, first compound 0.0316 µM
[8] = second compound 0.1 µM, first compound 0.1 µM
[9] = second compound 0.316 µM, first compound 0.00316 µM
[10] = second compound 0.316 µM, first compound 0.01 µM
[11] = second compound 0.316 µM, first compound 0.0316 µM
[12] = second compound 0.316 µM, first compound 0.1 µM
[13] = second compound 1 µM, first compound 0.00316 µM
[14] = second compound 1 µM, first compound 0.01 µM
[15] = second compound 1 µM, first compound 0.0316 µM
[16] = second compound 1 µM, first compound 0.1 µM
[17] = second compound 3.16 µM, first compound 0.00316 µM
[18] = second compound 3.16 µM, first compound 0.01 µM
[19] = second compound 3.16 µM, first compound 0.0316 µM
[20] = second compound 3.16 µM, first compound 0.1 µM
[21] = second compound 10 µM, first compound 0.00316 µM
[22] = second compound 10 µM, first compound 0.01 µM
[23] = second compound 10 µM, first compound 0.0316 µM
[24] = second compound 10 µM, first compound 0.1 µM

- IC50 (second compound 0.0316 µM): 536 nM
- IC50 (second compound 0.1 µM): 420 nM
- IC50 (second compound 0.316 µM): 314 nM
- IC50 (second compound 1 µM): 304 nM
- IC50 (second compound 3.16 µM): 282 nM
- IC50 (second compound 10 µM): 264 nM
Compound: COc1c(OCCCN2CCOCC2)ccc2c3n(c(=NC(=O)c4cnc(N)nc4)nc12)CCN3 + Cc1c(S(C)(=O)=O)c(-c2cc(F)cc(N3CCN(c4ccc(NS(=O)(=O)c5ccc(NC(CCN6CCC(C(=O)OCCCP(=O)(O)O)CC6)CSc6ccccc6)c(S(=O)(=O)C(F)(F)F)c5)cc4)CC3)c2)c(-c2ccc(Cl)cc2)n1C(C)C
- viability, T/C [1]: 103%
- viability, T/C [2]: 98.5%
- viability, T/C [3]: 95.7%
- viability, T/C [4]: 73.7%
- viability, T/C (second compound 0.0316 µM, first compound 0.316 µM): 69.4%
- viability, T/C (second compound 0.0316 µM, first compound 1 µM): 32.6%
- viability, T/C [5]: 98%
- viability, T/C [6]: 105%
- viability, T/C [7]: 94.7%
- viability, T/C [8]: 72.8%
- viability, T/C (second compound 0.1 µM, first compound 0.316 µM): 60.2%
- viability, T/C (second compound 0.1 µM, first compound 1 µM): 28.5%
- viability, T/C [9]: 107%
- viability, T/C [10]: 106%
- viability, T/C [11]: 91.1%
- viability, T/C [12]: 58.2%
- viability, T/C (second compound 0.316 µM, first compound 0.316 µM): 59%
- viability, T/C (second compound 0.316 µM, first compound 1 µM): 25.7%
- viability, T/C [13]: 104%
- viability, T/C [14]: 97.8%
- viability, T/C [15]: 99.8%
- viability, T/C [16]: 67.4%
- viability, T/C (second compound 1 µM, first compound 0.316 µM): 52.9%
- viability, T/C (second compound 1 µM, first compound 1 µM): 24.1%
- viability, T/C [17]: 122%
- viability, T/C [18]: 106%
- viability, T/C [19]: 86.8%
- viability, T/C [20]: 65.8%
- viability, T/C (second compound 3.16 µM, first compound 0.316 µM): 53.8%
- viability, T/C (second compound 3.16 µM, first compound 1 µM): 23.9%
- viability, T/C [21]: 171%
- viability, T/C [22]: 198%
- viability, T/C [23]: 131%
- viability, T/C [24]: 78.1%
- viability, T/C (second compound 10 µM, first compound 0.316 µM): 52.5%
- viability, T/C (second compound 10 µM, first compound 1 µM): 31.7%

- IC50 (second compound 0.0316 µM): > 100 nM
- IC50 (second compound 0.1 µM): > 100 nM
- IC50 (second compound 0.316 µM): > 100 nM
- IC50 (second compound 1 µM): > 100 nM
- IC50 (second compound 3.16 µM): > 100 nM
- IC50 (second compound 10 µM): > 100 nM
Compound: NC1CCC(NC2CC2c2ccccc2)CC1 (centres undefined) + Cc1c(S(C)(=O)=O)c(-c2cc(F)cc(N3CCN(c4ccc(NS(=O)(=O)c5ccc(NC(CCN6CCC(C(=O)OCCCP(=O)(O)O)CC6)CSc6ccccc6)c(S(=O)(=O)C(F)(F)F)c5)cc4)CC3)c2)c(-c2ccc(Cl)cc2)n1C(C)C
- viability, T/C (second compound 0.0316 µM, first compound 0.000316 µM): 109%
- viability, T/C (second compound 0.0316 µM, first compound 0.001 µM): 101%
- viability, T/C [1]: 98.1%
- viability, T/C [2]: 91.4%
- viability, T/C [3]: 95.1%
- viability, T/C [4]: 100%
- viability, T/C (second compound 0.1 µM, first compound 0.000316 µM): 109%
- viability, T/C (second compound 0.1 µM, first compound 0.001 µM): 98.3%
- viability, T/C [5]: 101%
- viability, T/C [6]: 107%
- viability, T/C [7]: 98%
- viability, T/C [8]: 115%
- viability, T/C (second compound 0.316 µM, first compound 0.000316 µM): 108%
- viability, T/C (second compound 0.316 µM, first compound 0.001 µM): 97.1%
- viability, T/C [9]: 97.5%
- viability, T/C [10]: 98.5%
- viability, T/C [11]: 110%
- viability, T/C [12]: 105%
- viability, T/C (second compound 1 µM, first compound 0.000316 µM): 104%
- viability, T/C (second compound 1 µM, first compound 0.001 µM): 109%
- viability, T/C [13]: 121%
- viability, T/C [14]: 92%
- viability, T/C [15]: 112%
- viability, T/C [16]: 107%
- viability, T/C (second compound 3.16 µM, first compound 0.000316 µM): 114%
- viability, T/C (second compound 3.16 µM, first compound 0.001 µM): 110%
- viability, T/C [17]: 102%
- viability, T/C [18]: 108%
- viability, T/C [19]: 109%
- viability, T/C [20]: 110%
- viability, T/C (second compound 10 µM, first compound 0.000316 µM): 168%
- viability, T/C (second compound 10 µM, first compound 0.001 µM): 206%
- viability, T/C [21]: 176%
- viability, T/C [22]: 177%
- viability, T/C [23]: 174%
- viability, T/C [24]: 168%
